Test results published in article PMC9487510, “A Novel Oral GyrB/ParE Dual Binding Inhibitor Effective against Multidrug-Resistant Neisseria gonorrhoeae and Other High-Threat Pathogens” (Antimicrobial Agents and Chemotherapy, 2022).
≈ marks a conversion by molar mass, not a printed value. Like-named read-outs stand apart in the source and are kept apart here.

Assays:
VISA = test: MIC, in vitro susceptibility testing (CLSI); type: cell-based, Staphylococcus aureus; conditions: for MIC: Staphylococcus aureus, VISA
MRSE = test: MIC, in vitro susceptibility testing (CLSI); type: cell-based, Staphylococcus epidermidis; conditions: for MIC: Staphylococcus epidermidis, MRSE, read-out: MIC
C. difficile = test: MIC, toxigenic C. difficile panel (CLSI); type: cell-based, Clostridioides difficile
[1] = test system: E. coli, Pseudomonas aeruginosa, Klebsiella pneumoniae, Acinetobacter baumannii, Francisella tularensis, Yersinia pestis; test: organism not typed; type: cell-based
E. coli = test: microbe, parasite or virus in culture; type: cell-based; conditions: Escherichia coli
[2] = Liver microsome stability, human; type: in vitro ADME; conditions: liver microsomes
Method: Liver microsome stability assays were performed by BioDuro Inc. Human and mouse (CD-1 male) liver microsomes were used. […] Next, 50 μL of reaction buffer was added to solution and mixed via pipetting up and down 6 times. At each time point of 0, 30, and 60 min, an aliquot of 20 μL was removed from each tube. Liver microsomes (LM) working solution was prepared in 0.05 M phosphate reaction buffer (pH = 7.4) to a final concentration of 1.27 mg/mL. NADPH solution was prepared in 0.05 M phosphate buffer to afford a 5 mM buffer solution. […] After vortexing and incubating for 5 min (37°C), 50 μL of NADPH solution was added and mixed via pipetting. At each time point of 0, 5, 15, 30, and 60 min, an aliquot of 20 μL was removed from each tube. Next, 250 μL of quenching solution was aliquoted to quench the reaction, which was then vortexed for 1 min and placed on ice for 40 min. After centrifugation at 4,000 × g for 15 min, 100 μL of supernatant was transferred using a multichannel pipette to 0.65-mL tubes. Samples were diluted with MeOH: H2O (1:1) as necessary. Samples were analyzed by high-pressure liquid chromatography coupled to tandem mass spectrometry (LC/MS/MS) performed on a Sciex Applied Biosystems Qtrap 4000 triple-quadrupole mass spectrometer coupled to a Shimadzu HPLC system to quantify the remaining compound. […]

Neisseria = type: cell-based, N. gonorrhoeae; conditions: at 1× MIC; resistance not observed; data not shown

## CNc1cc(F)cc2c1[nH]c1nc(Oc3cnc(C)nc3)nc(N3CCC4(CC3)CO[C@@H](CO)C4)c12 [JSF-2414]
VISA; N = 8
  MIC range: 0.0156 to 0.063 µg/mL
VISA; strain 2 11 43
  MIC: 0.0156 to 0.031 µg/mL (≈ 0.0316 to 0.0628 µM)
VISA; strain 2 11 56
  MIC: 0.063 µg/mL (≈ 0.128 µM)
VISA; strain 2 11 57
  MIC: 0.031 to 0.063 µg/mL (≈ 0.0628 to 0.128 µM)
VISA; strain 2 11 61
  MIC: 0.0156 to 0.031 µg/mL (≈ 0.0316 to 0.0628 µM)
VISA; strain 2 11 71
  MIC: 0.0156 to 0.031 µg/mL (≈ 0.0316 to 0.0628 µM)
VISA; strain 2 11 78
  MIC: 0.0156 to 0.031 µg/mL (≈ 0.0316 to 0.0628 µM)
VISA; strain 2 11 86
  MIC: 0.031 µg/mL (≈ 0.0628 µM)
VISA; strain 2 13 52
  MIC: 0.0156 to 0.031 µg/mL (≈ 0.0316 to 0.0628 µM)
MRSE; N = 4
  MIC range: 0.002 to 0.004 µg/mL
MRSE; strain 9 25
  MIC: 0.004 µg/mL (≈ 0.0081 µM)
MRSE; strain 9 26
  MIC: 0.002 µg/mL (≈ 0.00405 µM)
MRSE; strain 9 27
  MIC: 0.002 µg/mL (≈ 0.00405 µM)
MRSE; strain 9 28
  MIC: 0.004 µg/mL (≈ 0.0081 µM)
C. difficile; Clostridioides difficile, BAA1805, strain BAA-1805, read-out: MIC
  MIC: 0.031 µg/mL (≈ 0.0628 µM)
C. difficile; N = 9, toxigenic panel
  MIC range: 0.0078 to 0.0630 µg/mL
[1]
  MIC: > 0.5 µg/mL
E. coli
  MIC: 0.5 µg/mL (≈ 1.01 µM)
[2]; pH 7.4, read-out: HLM Clint
  microsomal CLint at 1 μM: 2.1 µL/min/mg
[2]; pH 7.4, read-out: HLM t1/2
  half-life at 1 μM: 5.5 h
Neisseria
  spontaneous resistance frequency: < 7.5 × 10^−4
